{"source": "patent US20260083865A1", "about": "“PROSTATE SPECIFIC MEMBRANE ANTIGEN (PSMA) LIGANDS AND USE THEREOF” (priority 2022, published 2026)", "key": {"[1]": {"target": "T1, PSMA-expressing C4-2 cells (Homo sapiens, UniProt Q04609)", "T1 construct": "PSMA-expressing C4-2 cells (ATCC, Cat. No. CRL-3314) were cultured in RPMI-1640; host or cells: C4-2 cells", "T1 sequence (Q04609 whole entry)": "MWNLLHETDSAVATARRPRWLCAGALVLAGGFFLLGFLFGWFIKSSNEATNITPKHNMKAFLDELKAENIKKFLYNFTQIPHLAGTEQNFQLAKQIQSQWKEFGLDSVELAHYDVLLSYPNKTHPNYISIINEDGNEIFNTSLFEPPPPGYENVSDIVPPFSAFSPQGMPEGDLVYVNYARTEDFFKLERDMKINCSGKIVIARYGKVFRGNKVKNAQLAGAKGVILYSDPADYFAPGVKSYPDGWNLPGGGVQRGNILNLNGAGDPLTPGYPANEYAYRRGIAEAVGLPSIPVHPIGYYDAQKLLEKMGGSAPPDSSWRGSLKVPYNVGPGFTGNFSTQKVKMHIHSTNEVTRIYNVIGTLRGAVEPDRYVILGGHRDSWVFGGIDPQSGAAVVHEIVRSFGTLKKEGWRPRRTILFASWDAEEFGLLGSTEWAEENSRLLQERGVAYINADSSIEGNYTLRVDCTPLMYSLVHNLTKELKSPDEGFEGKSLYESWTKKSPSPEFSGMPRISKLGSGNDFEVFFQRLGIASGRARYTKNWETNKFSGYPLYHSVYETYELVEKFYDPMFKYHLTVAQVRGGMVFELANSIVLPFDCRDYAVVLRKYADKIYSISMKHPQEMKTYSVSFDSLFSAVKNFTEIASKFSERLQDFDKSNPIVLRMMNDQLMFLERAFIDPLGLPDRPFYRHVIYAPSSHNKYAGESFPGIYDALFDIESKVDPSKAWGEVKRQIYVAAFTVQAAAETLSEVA", "experiment": "FACS binding assay (competition with 50 nM PSM-0183)", "details": "for IC50: read-out: pIC50 [C4-2] CAT (converted)", "how_it_was_run": "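C4-2 cells were incubated 1 h at 4 °C with 50 nM AF488-labelled peptide PSM-0183 plus increasing test compound concentrations, then washed twice in ice-cold buffer. Median fluorescence in the AF488 channel was read by flow cytometry. IC50/pIC50 was derived by 4PL fitting of MFI versus concentration.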"}, "[2]": {"target": "T2, Fc-fusion protein of human PSMA (hPSMA-Fc) (Homo sapiens, UniProt Q04609)", "T2 construct": "purchased Acro Biosystems PSA-H5264", "T2 sequence (Q04609 44-750 limits assumed)": "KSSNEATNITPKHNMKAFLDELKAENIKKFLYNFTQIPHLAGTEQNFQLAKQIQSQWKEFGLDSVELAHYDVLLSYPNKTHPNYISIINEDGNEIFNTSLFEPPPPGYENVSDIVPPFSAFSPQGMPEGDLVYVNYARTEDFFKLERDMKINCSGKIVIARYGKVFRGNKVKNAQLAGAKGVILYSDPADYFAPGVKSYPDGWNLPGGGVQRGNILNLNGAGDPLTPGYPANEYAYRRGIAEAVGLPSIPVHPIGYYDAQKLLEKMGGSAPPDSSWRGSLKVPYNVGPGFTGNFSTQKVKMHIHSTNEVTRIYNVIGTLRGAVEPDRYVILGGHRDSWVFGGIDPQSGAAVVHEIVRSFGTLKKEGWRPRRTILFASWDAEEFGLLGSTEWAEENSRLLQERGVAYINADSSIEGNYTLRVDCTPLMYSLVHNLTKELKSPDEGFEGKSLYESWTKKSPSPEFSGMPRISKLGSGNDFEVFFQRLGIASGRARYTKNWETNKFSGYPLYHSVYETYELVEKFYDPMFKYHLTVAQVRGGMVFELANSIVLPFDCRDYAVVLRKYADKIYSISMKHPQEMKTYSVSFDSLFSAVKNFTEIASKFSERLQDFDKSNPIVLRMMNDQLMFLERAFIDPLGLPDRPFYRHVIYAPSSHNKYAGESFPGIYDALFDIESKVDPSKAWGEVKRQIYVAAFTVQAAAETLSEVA", "experiment": "Surface plasmon resonance assay (Biacore T200, single cycle kinetic)", "assay_type": "binding", "details": "hPSMA-Fc, 25° C.; for Kd: read-out: pKD CAT (converted)", "how_it_was_run": "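hPSMA-Fc was captured (~1000 RU) on an Fc-binding-peptide CM5 chip, and compounds were run in single cycle kinetic mode at 25° C in HBST with 0.1% DMSO. Double-blank-corrected sensorgrams were fitted to a 1:1 Langmuir model to give KD, reported as pKD.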"}, "[3]": {"details": "pIC50 category of FACS binding, C4-2 cells"}, "[4]": {"details": "pKD category for PSMA SPR activity assay"}, "[5]": {"details": "FACS binding, C4-2 cells, competition with 50 nM PSM-0183, category"}, "[6]": {"details": "SPR, single cycle kinetic, category"}, "[7]": {"details": "FACS binding, PSMA-expressing C4-2 cells, pIC50 category"}}, "note": "Where two headings read alike, the source gives them in different places. Numbered stars: 1 amine (or outer) side, 2 acyl side, 3 side chain; on linkers, the order of the positions; unused ones are H or OH. Bridge positions count the residues as written; N and C are the ends. Square brackets hold non-standard residues; d marks the D form. Peptide text beside a SMILES is read from it. * marks the point of attachment. X3 = O=C(O)CN1CCN(CC(=O)O)CCN(CC(=O)NCCCOCCOCCOCCCN*)CCN(CC(=O)O)CC1; DOTA = O=C(O)CN1CCN(CC(=O)O)CCN(CC(=O)*)CCN(CC(=O)O)CC1; Phe(4-Cl) = N[C@@H](Cc1ccc(Cl)cc1)C(=O)O; Phe(3-Me) = Cc1cccc(C[C@H](N)C(=O)O)c1; Ethylenediamine = C(CN[*:2])N[*:1]; NMeR = CN[C@@H](CCCNC(=N)N)C(=O)O; X1 = O=C(CC1CCN([*:1])CC1)[*:2]; Lys(Me) = CNCCCC[C@H](N)C(=O)O; d(αMeS) = C[C@@](N)(CO)C(=O)O; Suc = O=C(CCC(=O)[*:2])[*:1]; Tle = CC(C)(C)[C@H](N)C(=O)O; Aib = CC(C)(N)C(=O)O", "data": [{"molecule": "CNCCCC[C@@H]1NC(=O)[C@@H](NC(=O)[C@H](Cc2ccc(Cl)cc2)NC(=O)C(C)(C)NC(C)=O)CSSC[C@@H](C(=O)N[C@H](C(=O)NCCNC(=O)CN2CCN(CC(=O)O)CCN(CC(=O)O)CCN(CC(=O)O)CC2)C(C)(C)C)NC(=O)[C@H](CC(N)=O)NC(=O)C(C)(C)NC(=O)[C@H](CCCNC(=N)N)NC1=O", "note": "[PSM-0472, Ac-Aib-Pcf-[Cys-Lys(Me)-Arg-Aib-Asn-Cys]-Tle-en-DOTA] (Ac-[Aib][Phe(4-Cl)]C[Lys(Me)]R[Aib]NC[Tle]-{Ethylenediamine-DOTA}; disulfide 3-8)", "values": [{"measurement": "IC50", "setting": "[1]; [3]", "value": "< 200", "unit": "nM"}, {"measurement": "Kd", "setting": "[2]; [4]", "value": "< 12.6", "unit": "nM"}]}, {"molecule": "CC(=O)N[C@H](C(=O)NC(C)(C)C(=O)N[C@@H](Cc1ccccc1)C(=O)N[C@H]1CSSC[C@@H](C(=O)N[C@H](C(=O)N[C@H](C(N)=O)[C@@H](C)O)C(C)(C)C)NC(=O)[C@H](CC(N)=O)NC(=O)C(C)(C)NC(=O)[C@H](CCCNC(=N)N)N(C)C(=O)[C@H](CCCCN)NC1=O)[C@@H](C)O", "note": "[PSM-0235, Ac-Thr-Aib-Phe-[Cys-Lys-Nmr-Aib-Asn-Cys]-Tle-Thr-NH2] (Ac-T[Aib]FCK[NMeR][Aib]NC[Tle]T-NH2; disulfide 4-9)", "values": [{"measurement": "IC50", "setting": "[1]; [5]", "value": "200 to 1260", "unit": "nM"}, {"measurement": "Kd", "setting": "[2]; [6]", "value": "126 to 501", "unit": "nM"}]}, {"molecule": "CC(=O)N[C@H](C(=O)NC(C)(C)C(=O)N[C@@H](Cc1ccccc1)C(=O)N[C@H]1CSSC[C@@H](C(=O)N[C@H](C(=O)N[C@H](C(=O)N[C@@H](CC(=O)O)C(N)=O)[C@@H](C)O)C(C)(C)C)NC(=O)[C@H](CC(N)=O)NC(=O)C(C)(C)NC(=O)[C@H](CCCNC(=N)N)NC(=O)[C@H](CCC(N)=O)NC1=O)[C@@H](C)O", "note": "[PSM-0210, Ac-Thr-Aib-Phe-[Cys-Gln-Arg-Aib-Asn-Cys]-Tle-Thr-Asp-NH2] (Ac-T[Aib]FCQR[Aib]NC[Tle]TD-NH2; disulfide 4-9)", "values": [{"measurement": "IC50", "setting": "[1]; [5]", "value": "< 200", "unit": "nM"}, {"measurement": "Kd", "setting": "[2]; [6]", "value": "12.6 to 126", "unit": "nM"}]}, {"molecule": "CC(=O)N[C@H](C(=O)NC(C)(C)C(=O)N[C@@H](Cc1cccc(C)c1)C(=O)N[C@H]1CSSC[C@@H](C(=O)N[C@H](C(=O)N[C@H](C(N)=O)[C@@H](C)O)C(C)(C)C)NC(=O)[C@H](CC(N)=O)NC(=O)C(C)(C)NC(=O)[C@H](CCCNC(=N)N)NC(=O)[C@H](CCCCN)NC1=O)[C@@H](C)O", "note": "[PSM-0412, Ac-Thr-Aib-Mmf-[Cys-Lys-Arg-Aib-Asn-Cys]-Tle-Thr-NH2] (Ac-T[Aib][Phe(3-Me)]CKR[Aib]NC[Tle]T-NH2; disulfide 4-9)", "values": [{"measurement": "IC50", "setting": "[1]; [3]", "value": "< 200", "unit": "nM"}, {"measurement": "Kd", "setting": "[2]; [4]", "value": "< 12.6", "unit": "nM"}]}, {"molecule": "Ac-Thr-Aib-Phe-[Cys-Lys-Arg-Aib-Asn-Cys]-Tle-Thr-Cmp-lys (LuDOTA)-NH2 [PSM-0347]", "values": [{"measurement": "pIC50 [C4-2] CAT", "setting": "[1]; [7]", "value": "A (pIC50 values >6.7)"}, {"measurement": "pKD CAT", "setting": "[2]; PSMA SPR assay, pKD category", "value": "A (pKD values >7.9)"}]}, {"molecule": "C[C@@H](O)[C@H](NC(=O)[C@@H](NC(=O)[C@@H]1CSSC[C@H](NC(=O)[C@H](Cc2ccccc2)NC(=O)C(C)(C)NC(=O)[C@@H](NC(=O)CCC(=O)NCCCOCCOCCOCCCNC(=O)CN2CCN(CC(=O)O)CCN(CC(=O)O)CCN(CC(=O)O)CC2)[C@@H](C)O)C(=O)N[C@@H](CCCCN)C(=O)N[C@@H](CCC(N)=O)C(=O)NC(C)(C)C(=O)N[C@@H](CC(N)=O)C(=O)N1)C(C)(C)C)C(N)=O", "note": "[PSM-0521, DOTA-Ttds-Thr-Aib-Phe-[Cys-Lys-Gln-Aib-Asn-Cys]-Tle-Thr-NH2] ({X3-Suc}-T[Aib]FCKQ[Aib]NC[Tle]T-NH2; disulfide 4-9)", "values": [{"measurement": "IC50", "setting": "[1]; [3]", "value": "200 to 1260", "unit": "nM"}, {"measurement": "Kd", "setting": "[2]; [4]", "value": "12.6 to 126", "unit": "nM"}]}, {"molecule": "C[C@@H](O)[C@H](NC(=O)[C@@H](NC(=O)[C@@H]1CSSC[C@H](NC(=O)[C@H](Cc2ccc(Cl)cc2)NC(=O)C(C)(C)NC(=O)[C@@H](NC(=O)CC2CCN(C(=O)CN3CCN(CC(=O)O)CCN(CC(=O)O)CCN(CC(=O)O)CC3)CC2)[C@@H](C)O)C(=O)N[C@@H](CCCCN)C(=O)N[C@@H](CCCNC(=N)N)C(=O)N[C@](C)(CO)C(=O)N[C@@H](CC(N)=O)C(=O)N1)C(C)(C)C)C(N)=O", "note": "[PSM-0314, DOTA-Cmp-Thr-Aib-Pcf-[Cys-Lys-Arg-ams-Asn-Cys]-Tle-Thr-NH2] ({DOTA}-[X1]T[Aib][Phe(4-Cl)]CKR[d(αMeS)]NC[Tle]T-NH2; disulfide 5-10)", "values": [{"measurement": "IC50", "setting": "[1]; [7]", "value": "< 200", "unit": "nM"}, {"measurement": "Kd", "setting": "[2]; PSMA SPR assay, pKD category", "value": "< 12.6", "unit": "nM"}]}]}
